Common to all, as to format: biochemical
For experiment [1], the target named is Syk (Homo sapiens, UniProt P43405). Kind of experiment: Syk IC50 (Table 1; method not given).
In experiment [2] the target is T1, JAK1 (Homo sapiens, UniProt P23458).
T1 construct: 5 μl of catalytic domain recombinant Kinase enzyme+Tyr peptide substrate (Invitrogen, Calif.); purchased Invitrogen
Kind of experiment: Z'-LYTE kinase assay, JAK1 tyrosine phosphorylation activity. The note with it: read-out: JAK 1 IC50. In a few lines: (§1)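 FRET-based Z′-LYTE format with recombinant catalytic-domain kinases and Tyr6 peptide substrate; compounds in 1% DMSO final, duplicate wells. Kinase reaction with ATP runs 1 h at room temperature, then protease development 1 h; fluorescence read at ex 400, em 445/520 nm. IC50 from 4-parameter logistic fit of percent phosphorylation versus uninhibited.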

Experiment [3] concerns the target T2, JAK3 (Homo sapiens, UniProt P52333).
T2 construct: 5 μl of catalytic domain recombinant Kinase enzyme+Tyr peptide substrate (Invitrogen, Calif.); purchased Invitrogen
Kind of experiment: Z'-LYTE kinase assay, JAK3 tyrosine phosphorylation activity. In a few lines: as §1

Experiment [4] deals with T3, JAK2 (Homo sapiens, UniProt O60674).
T3 construct: 5 μl of catalytic domain recombinant Kinase enzyme+Tyr peptide substrate (Invitrogen, Calif.); purchased Invitrogen
T3 sequence (O60674 849-1124 limits assumed): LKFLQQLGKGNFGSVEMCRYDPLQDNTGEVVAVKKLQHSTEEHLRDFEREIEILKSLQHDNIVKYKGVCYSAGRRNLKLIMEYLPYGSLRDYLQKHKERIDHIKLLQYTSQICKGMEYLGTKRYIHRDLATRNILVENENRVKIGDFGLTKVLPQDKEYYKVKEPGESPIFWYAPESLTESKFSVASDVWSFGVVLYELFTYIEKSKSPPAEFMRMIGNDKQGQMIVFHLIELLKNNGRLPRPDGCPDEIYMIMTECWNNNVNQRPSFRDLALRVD
Description: Z'-LYTE kinase assay, JAK2 tyrosine phosphorylation activity. In a few lines:
as §1

Bounds are passed on as bounds.

T2 sequence (P52333 822-1111 limits assumed): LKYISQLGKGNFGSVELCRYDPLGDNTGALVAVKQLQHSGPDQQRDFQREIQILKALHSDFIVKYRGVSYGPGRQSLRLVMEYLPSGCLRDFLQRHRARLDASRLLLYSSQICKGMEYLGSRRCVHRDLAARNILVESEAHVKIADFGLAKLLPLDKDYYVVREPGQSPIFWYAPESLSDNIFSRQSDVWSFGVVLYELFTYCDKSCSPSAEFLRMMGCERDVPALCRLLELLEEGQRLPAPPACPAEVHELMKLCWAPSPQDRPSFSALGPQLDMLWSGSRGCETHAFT
T1 sequence (P23458 875-1153 limits assumed): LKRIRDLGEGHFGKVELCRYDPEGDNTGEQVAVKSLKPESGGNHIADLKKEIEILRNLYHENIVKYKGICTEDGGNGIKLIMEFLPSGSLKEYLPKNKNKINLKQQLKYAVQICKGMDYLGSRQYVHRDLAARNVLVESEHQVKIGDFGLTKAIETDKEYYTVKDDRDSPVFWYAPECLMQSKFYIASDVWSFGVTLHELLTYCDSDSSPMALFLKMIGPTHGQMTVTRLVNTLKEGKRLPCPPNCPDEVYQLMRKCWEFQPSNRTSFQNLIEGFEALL

As for `CCNC(=O)Nc1cccc(Nc2ncc(C(N)=O)c(NC3CCCC3)n2)c1` [Example 36, 4-(cyclopentylamino)-2-(3-(3-ethylureido)phenylamino)pyrimidine-5-carboxamide], the IC50 (in general, the midpoint of a concentration-inhibition curve) in experiment [1] lay within 0.1 to 1 µM; in experiment [2] it was 0.01 to 0.1 µM; in experiment [3], 0.001 to 0.01 µM; in experiment [4], 0.01 to 0.1 µM.
`CC(=O)Nc1cccc(Nc2ncc(C(N)=O)c(NC[C@H](O)c3ccccc3)n2)c1` [Example 49, (R)-2-(3-acetamidophenylamino)-4-(2-hydroxy-2-phenylethylamino)pyrimidine-5-carboxamide]: the IC50 in experiment [1] is 0.1 to 1 µM; in experiment [2] it was 0.1 to 1 µM; in experiment [3], 0.001 to 0.01 µM; in experiment [4], 0.01 to 0.1 µM.
On to `COCC(=O)Nc1cccc(Nc2ncc(C(N)=O)c(NCc3ccc(OC)cc3)n2)c1` [Example 44, 2-(3-(2-methoxyacetamido)phenylamino)-4-(4-methoxybenzylamino)pyrimidine-5-carboxamide], for which the IC50 in experiment [1] was over 1 µM; in experiment [2] it was 0.1 to 1 µM; in experiment [3], 0.01 to 0.1 µM; in experiment [4] it was 0.1 to 1 µM.
With `CC(=O)Nc1cccc(Nc2ncc(C(N)=O)c(NC3CC3c3ccccc3)n2)c1` (centres unmarked) [Example 51, 2-(3-acetamidophenylamino)-4-(2-phenylcyclopropylamino)pyrimidine-5-carboxamide], the IC50 was in the range of 0.1 to 1 µM in experiment [1], 0.1 to 1 µM in experiment [2], 0.01 to 0.1 µM in experiment [3] and 0.01 to 0.1 µM in experiment [4].
Turning to `NC(=O)Nc1cccc(Nc2ncc(C(N)=O)c(NC3CCCC3)n2)c1` [Example 33, 4-(cyclopentylamino)-2-(3-ureidophenylamino)pyrimidine-5-carboxamide], the IC50 is 0.1 to 1 µM in experiment [1], 0.01 to 0.1 µM in experiment [2], 0.001 to 0.01 µM in experiment [3] and 0.01 to 0.1 µM in experiment [4].
Consider `CN(C)[C@@H]1CCN(C(=O)Nc2cccc(Nc3cc(NCc4cccc(F)c4)c(C(N)=O)cn3)c2)C1` [Example 306, (R)-6-(3-(3-(dimethylamino)pyrrolidine-1-carboxamido)phenylamino)-4-(3-fluorobenzylamino)nicotinamide], for which the IC50 was over 1 µM in experiment [1], 0.1 to 1 µM in experiment [2], under 0.001 µM in experiment [3] and 0.01 to 0.1 µM in experiment [4].
Consider `NC(=O)c1cnc(Nc2ccc(F)c(NC(=O)N3CCC3)c2)cc1NCc1cccc(F)c1` [Example 305, 6-(3-(azetidine-1-carboxamido)-4-fluorophenylamino)-4-(3-fluorobenzylamino)nicotinamide], for which the IC50 in experiment [1] is over 1 µM; in experiment [2], 0.1 to 1 µM; in experiment [3], 0.001 to 0.01 µM; in experiment [4], 0.1 to 1 µM.
For `CC(=O)Nc1cccc(Nc2ncc(C(N)=O)c(NC[C@@H](C)c3ccccc3)n2)c1` [Example 3, (S)-2-(3-acetamidophenylamino)-4-(2-phenylpropylamino)pyrimidine-5-carboxamide], the IC50 in experiment [1] is over 1 µM; in experiment [2] it was 0.01 to 0.1 µM; in experiment [3] it was 0.001 to 0.01 µM; in experiment [4], 0.001 to 0.01 µM.
Consider `CNC(=O)Nc1cccc(Nc2ncc(C(N)=O)c(NC3CCCC3)n2)c1` [Example 34, 4-(cyclopentylamino)-2-(3-(3-methylureido)phenylamino)pyrimidine-5-carboxamide], for which the IC50 in experiment [1] lay within 0.1 to 1 µM; in experiment [2] it was 0.01 to 0.1 µM; in experiment [3], 0.001 to 0.01 µM; in experiment [4] it was 0.01 to 0.1 µM.
Regarding `CC(=O)Nc1cccc(Nc2ncc(C(N)=O)c(N[C@@H](C)c3ccccc3)n2)c1` [Example 64, (S)-2-(3-acetamidophenylamino)-4-(1-phenylethylamino)pyrimidine-5-carboxamide], the IC50 in experiment [1] is over 1 µM; in experiment [2], 0.1 to 1 µM; in experiment [3], 0.01 to 0.1 µM; in experiment [4], 0.1 to 1 µM.
On to `COCC(=O)Nc1cccc(Nc2ncc(C(N)=O)c(NCc3ccc(Cl)c(Cl)c3)n2)c1` [Example 46, 4-(3,4-dichlorobenzylamino)-2-(3-(2-methoxyacetamido)phenylamino)pyrimidine-5-carboxamide], for which the IC50 in experiment [1] was over 1 µM; in experiment [2], over 1 µM; in experiment [3], 0.1 to 1 µM; in experiment [4], over 1 µM.
As to `CC(=O)Nc1cccc(Nc2ncc(C(N)=O)c(NCCc3ccccc3)n2)c1` [Example 56, 2-(3-acetamidophenylamino)-4-(phenethylamino)pyrimidine-5-carboxamide], the IC50 in experiment [1] was in the range of 0.1 to 1 µM; in experiment [2], 0.1 to 1 µM; in experiment [3] it was 0.01 to 0.1 µM; in experiment [4], 0.01 to 0.1 µM.
Consider `CC(=O)Nc1cccc(Nc2ncc(C(N)=O)c(N(C)Cc3ccccc3)n2)c1` [Example 54, 2-(3-acetamidophenylamino)-4-(benzyl(methyl)amino)pyrimidine-5-carboxamide], for which the IC50 in experiment [1] was over 1 µM; in experiment [2] it was over 1 µM; in experiment [3], 0.1 to 1 µM; in experiment [4], 0.1 to 1 µM.
Take `CC(=O)Nc1cccc(Nc2ncc(C(N)=O)c(NCC(N)=O)n2)c1` [Example 50, 2-(3-acetamidophenylamino)-4-(2-amino-2-oxoethylamino)pyrimidine-5-carboxamide]: the IC50 in experiment [1] was over 1 µM; in experiment [2] it was 0.1 to 1 µM; in experiment [3], 0.1 to 1 µM; in experiment [4], 0.1 to 1 µM.
Regarding `CC(=O)Nc1cccc(Nc2ncc(C(N)=O)c(NCCN3CCCC3)n2)c1` [Example 63, 2-(3-acetamidophenylamino)-4-(2-(pyrrolidin-1-yl)ethylamino)pyrimidine-5-carboxamide], the IC50 in experiment [1] was over 1 µM; in experiment [2] it was over 1 µM; in experiment [3] it was 0.1 to 1 µM; in experiment [4] it was over 1 µM.
In the case of `CN(C)C(=O)Nc1cccc(Nc2ncc(C(N)=O)c(NC3CCCC3)n2)c1` [Example 35, 4-(cyclopentylamino)-2-(3-(3,3-dimethylureido)phenylamino)pyrimidine-5-carboxamide], the IC50 in experiment [1] was 0.1 to 1 µM; in experiment [2] it was 0.01 to 0.1 µM; in experiment [3], 0.001 to 0.01 µM; in experiment [4], 0.01 to 0.1 µM.
On to `COCC(=O)Nc1cccc(Nc2ncc(C(N)=O)c(NCc3ccc(C)cc3)n2)c1` [Example 43, 2-(3-(2-methoxyacetamido)phenylamino)-4-(4-methylbenzylamino)pyrimidine-5-carboxamide], for which the IC50 in experiment [1] was over 1 µM; in experiment [2], 0.1 to 1 µM; in experiment [3], 0.01 to 0.1 µM; in experiment [4] it was 0.1 to 1 µM.
In the case of `CC(=O)Nc1cccc(Nc2ncc(C(N)=O)c(N[C@H]3CCC[C@@H]3O)n2)c1` (relative stereo) [Example 53, 2-(3-acetamidophenylamino)-4-((trans)-2-hydroxycyclopentylamino)pyrimidine-5-carboxamide], the IC50 in experiment [1] was in the range of 0.1 to 1 µM; in experiment [2], 0.01 to 0.1 µM; in experiment [3] it was 0.001 to 0.01 µM; in experiment [4] it was 0.01 to 0.1 µM.
Turning to `CC(=O)Nc1cccc(Nc2ncc(C(N)=O)c(NC[C@@H](O)c3ccccc3)n2)c1` [Example 48, (S)-2-(3-acetamidophenylamino)-4-(2-hydroxy-2-phenylethylamino)pyrimidine-5-carboxamide], the IC50 is over 1 µM in experiment [1], 0.1 to 1 µM in experiment [2], 0.001 to 0.01 µM in experiment [3] and 0.01 to 0.1 µM in experiment [4].
The corresponding values for `CC(=O)Nc1cccc(Nc2ncc(C(N)=O)c(NC3CCCC3)n2)c1` [Example 15, 2-(3-acetamidophenylamino)-4-(cyclopentylamino)pyrimidine-5-carboxamide] are 0.1 to 1 µM, 0.01 to 0.1 µM, 0.001 to 0.01 µM and 0.01 to 0.1 µM.
In the case of `COC(=O)Nc1cc(Nc2ncc(C(N)=O)c(NCC(F)(F)F)n2)ccc1Cl` [Example 18, methyl 5-(5-carbamoyl-4-(2,2,2-trifluoroethylamino)pyrimidin-2-ylamino)-2-chlorophenylcarbamate], the half-inhibitory concentration (IC50) in experiment [1] is over 1 µM; in experiment [2], over 1 µM; in experiment [3], 0.01 to 0.1 µM; in experiment [4], 0.1 to 1 µM.
On to `COC(=O)Nc1cccc(Nc2ncc(C(N)=O)c(NC3CCCC3)n2)c1` [Example 23, methyl 3-(5-carbamoyl-4-(cyclopentylamino)pyrimidin-2-ylamino)phenylcarbamate], for which the 50% inhibitory concentration (IC50) in experiment [1] was in the range of 0.1 to 1 µM; in experiment [2] it was 0.01 to 0.1 µM; in experiment [3] it was 0.001 to 0.01 µM; in experiment [4] it was 0.01 to 0.1 µM.
Turning to `COC(=O)Nc1cc(Nc2ncc(C(N)=O)c(NC3CCCC3)n2)ccc1Cl` [Example 25, methyl 5-(5-carbamoyl-4-(cyclopentylamino)pyrimidin-2-ylamino)-2-chlorophenylcarbamate], the IC50 in experiment [1] lay in the range of 0.1 to 1 µM; in experiment [2], 0.01 to 0.1 µM; in experiment [3] it was 0.01 to 0.1 µM; in experiment [4] it was 0.1 to 1 µM.
`CC(=O)Nc1cccc(Nc2ncc(C(N)=O)c(NCc3ccc(C)cc3)n2)c1` [Example 67, 2-(3-acetamidophenylamino)-4-(4-methylbenzylamino)pyrimidine-5-carboxamide]: the IC50 in experiment [1] was over 1 µM; in experiment [2] it was 0.1 to 1 µM; in experiment [3], 0.01 to 0.1 µM; in experiment [4], 0.1 to 1 µM.
Take `CC(=O)Nc1cccc(Nc2ncc(C(N)=O)c(NCc3c(F)ccc(F)c3F)n2)c1` [Example 59, 2-(3-acetamidophenylamino)-4-(2,3,6-trifluorobenzylamino)pyrimidine-5-carboxamide]: the IC50 in experiment [1] is 0.1 to 1 µM; in experiment [2] it was 0.01 to 0.1 µM; in experiment [3] it was 0.001 to 0.01 µM; in experiment [4], 0.01 to 0.1 µM.
Consider `COCC(=O)Nc1cccc(Nc2ncc(C(N)=O)c(NC3CCCC3)n2)c1` [Example 22, 4-(cyclopentylamino)-2-(3-(2-methoxyacetamido)phenylamino)pyrimidine-5-carboxamide], for which the IC50 in experiment [1] lay within 0.1 to 1 µM; in experiment [2] it was 0.01 to 0.1 µM; in experiment [3], 0.001 to 0.01 µM; in experiment [4], 0.01 to 0.1 µM.

Source of the values: patent US8853230B2, “Inhibitors of JAK” (Portola Pharmaceuticals, Inc., priority 2009, dated 2014).
